Results as given in US10175256B2, “Compositions and methods utilizing lysophosphatidylcholine scaffolds” (National University Of Singapore, priority 2013, dated 2019).
Values joined by “and” are separate entries in the source; they are usually repeats but may differ in a detail not shown here. Equal entries are not always repeated.

What follows are compounds tested against T1, mouse Mfsd2a (Mus musculus, UniProt Q9DA75) (assay: Cell-based free fatty acid transport/uptake in Mfsd2a expressing HEK293 cells (mass spectrometry, TLC; Table 1)). Details: Mfsd2a expressing HEK293 cells, 100 uM Alpha-linolenic fatty acid/BSA complex overnight; replicate columns.
T1 construct: expressed in transfected cells; host or cells: HEK293
T1 sequence (Q9DA75 1-534): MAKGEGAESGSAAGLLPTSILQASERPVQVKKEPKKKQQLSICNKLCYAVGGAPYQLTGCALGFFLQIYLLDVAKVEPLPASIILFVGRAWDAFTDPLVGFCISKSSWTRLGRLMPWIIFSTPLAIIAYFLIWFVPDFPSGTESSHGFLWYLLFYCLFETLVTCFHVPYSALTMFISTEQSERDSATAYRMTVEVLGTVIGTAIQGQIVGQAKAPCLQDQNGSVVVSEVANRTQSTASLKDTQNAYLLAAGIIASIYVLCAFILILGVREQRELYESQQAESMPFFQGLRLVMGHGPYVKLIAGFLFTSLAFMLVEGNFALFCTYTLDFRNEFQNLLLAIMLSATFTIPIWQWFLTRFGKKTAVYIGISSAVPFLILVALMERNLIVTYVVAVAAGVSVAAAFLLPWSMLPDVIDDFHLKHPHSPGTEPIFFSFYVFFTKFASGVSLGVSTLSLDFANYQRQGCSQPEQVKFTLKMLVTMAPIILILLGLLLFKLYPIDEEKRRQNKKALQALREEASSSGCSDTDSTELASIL
Protocol: (§1) FIG. 12. […] Std: free [^14C]-DHA. b. TLC analysis of phospholipids and neutral lipids of HEK293 cells transfected with mouse Mfsd2a and mutants after overnight incubation with 100 μM [^14C]-oleate. TLC protocol used was described in Methods. PC: phosphatidylcholine, PE: phosphatidylethanolamine, TAG: triglyceride, CE: cholesteryl ester.
(§2) For tissue lipid analysis, brain, liver, and heart of female WT and KO mice with age of 7-8 weeks born to HET mothers, and brains from e18.5 embryos were collected and immediately frozen with liquid nitrogen until extraction. Lipid extraction was followed by chloroform/methanol method. For cell-based free fatty acid transport, lipids from HEK293 cells expressing mouse Mfsd2a and mock controls after overnight treatment with 100 μM docosahexaenoic, arachidonic, eicosapentaenoic, alpha-linolenic, linoleic, oleic, palmitic acids in BSA complex were extracted using HIP buffer (hexane:iso-propanol 3:2, per volume) and dried under N2 gas. Phospholipid species were measured by high performance liquid chromatography (HPLC) 1100 system (Agilent) coupled with an Triple Quadrupole/Ion Trap mass spectrometer (4000Qtrap, Applied Biosystem). Levels of individual phospholipid species were analyzed as described previously and quantified using spiked internal standards that includes PC-14:0/14:0, PE-14:0/14:0, PS-14:0/14:0 (Avanti Polar Lipids, Alabaster, Ala., USA), and dioctanoyl PI (Echelon Biosciences, Inc., Salt Lake City, Utah, USA).
With CCCCCCCCCCCCCC/C=C\OC[C@@H](O)COP(=O)(O)OCCN [Lyso PE16:0p] the “Amount of lipid species, mol percent in total phospholipid analysed” value (from here on “Amount of lipid species, mol percent”) was 3.296 mol percent and 3.844 mol percent and 2.809 mol percent and 2.876 mol percent. For CCCCCCCCCCCCCCCC/C=C\OC[C@@H](O)COP(=O)(O)OCCN [Lyso PE18:0p], the “Amount of lipid species, mol percent” value was 0.5329 mol percent and 0.4653 mol percent and 0.37 mol percent and 0.5715 mol percent. CCCCCCCCCCCCCCCCCC/C=C\OC[C@@H](O)COP(=O)(O)OCCN [Lyso PE20:0p] was tested, and the “Amount of lipid species, mol percent” value was 0.4144 mol percent and 0.2832 mol percent and 0.3195 mol percent and 0.1905 mol percent.

Same assay, conditions: Mfsd2a expressing HEK293 cells, 100 uM Linoleic fatty acid/BSA complex overnight; replicate columns
For CCCCCCCCCCCCCC/C=C\OC[C@@H](O)COP(=O)(O)OCCN [Lyso PE16:0p], the “Amount of lipid species, mol percent” value was 1.997 mol percent and 3.121 mol percent and 2.462 mol percent and 2.098 mol percent. With CCCCCCCCCCCCCCCC/C=C\OC[C@@H](O)COP(=O)(O)OCCN [Lyso PE18:0p] the “Amount of lipid species, mol percent” value was 0.3438 mol percent and 0.3054 mol percent and 0.2525 mol percent and 0.1986 mol percent. For CCCCCCCCCCCCCCCCCC/C=C\OC[C@@H](O)COP(=O)(O)OCCN [Lyso PE20:0p], the “Amount of lipid species, mol percent” value was 0.1851 mol percent and 0.2714 mol percent and 0.2999 mol percent and 0.1862 mol percent.

Same assay, conditions: Mfsd2a expressing HEK293 cells; 100 uM Docosahexaenoic acid/BSA complex overnight; MS; replicate columns
For CCCCCCCCCCCCCCCC(=O)OC[C@@H](O)COP(=O)(O)O[C@@H]1[C@H](O)[C@H](O)[C@@H](O)[C@H](O)[C@H]1O [LP116:0], the “Amount of each lipid species normalized to internal standard, mol percent in total phospholipid analysed” value was 0.003896 mol percent and 0.00362 mol percent and 0.004663 mol percent and 0.002596 mol percent. In the case of CCCCCCCCCCCCCC/C=C\OC[C@@H](O)COP(=O)(O)OCCN [Lyso PE16:0p], the “Amount of each lipid species normalized to internal standard, mol percent in total phospholipid analysed” value was 3.182 mol percent and 3.1158 mol percent and 3.231 mol percent and 3.697 mol percent. In the case of CCCCCCCCCCCCCCCC/C=C\OC[C@@H](O)COP(=O)(O)OCCN [Lyso PE18:0p], the “Amount of each lipid species normalized to internal standard, mol percent in total phospholipid analysed” value was 0.3998 mol percent and 0.8078 mol percent and 0.4971 mol percent and 0.5526 mol percent. With CCCCCCCCCCCCCCCCCC/C=C\OC[C@@H](O)COP(=O)(O)OCCN [Lyso PE20:0p] the “Amount of each lipid species normalized to internal standard, mol percent in total phospholipid analysed” value was 0.1999 mol percent and 0.2885 mol percent and 0.2131 mol percent and 0.1906 mol percent.

Same assay, conditions: Mfsd2a expressing HEK293 cells; 100 uM Eicosapentaenoic acid/BSA complex overnight; MS; replicate columns
For CCCCCCCCCCCCCC/C=C\OC[C@@H](O)COP(=O)(O)OCCN [Lyso PE16:0p], the “Amount of each lipid species normalized to internal standard, mol percent in total phospholipid analysed” value was 2.495 mol percent and 3.134 mol percent and 3.766 mol percent and 2.379 mol percent. With CCCCCCCCCCCCCCCC/C=C\OC[C@@H](O)COP(=O)(O)OCCN [Lyso PE18:0p] the “Amount of each lipid species normalized to internal standard, mol percent in total phospholipid analysed” value was 0.4834 mol percent and 0.7431 mol percent and 0.4828 mol percent and 0.4728 mol percent. With CCCCCCCCCCCCCCCCCC/C=C\OC[C@@H](O)COP(=O)(O)OCCN [Lyso PE20:0p] the “Amount of each lipid species normalized to internal standard, mol percent in total phospholipid analysed” value was 0.1715 mol percent and 0.2585 mol percent and 0.309 mol percent and 0.2898 mol percent.

Same assay, conditions: Mfsd2a expressing HEK293 cells; 100 uM Oleic fatty acid/BSA complex overnight; MS; replicate columns
For CCCCCCCCCCCCCC/C=C\OC[C@@H](O)COP(=O)(O)OCCN [Lyso PE16:0p], the “Amount of lipid species, mol percent” value was 2.254 mol percent and 2.591 mol percent and 2.664 mol percent and 2.476 mol percent. CCCCCCCCCCCCCCCC/C=C\OC[C@@H](O)COP(=O)(O)OCCN [Lyso PE18:0p] was tested, and the “Amount of lipid species, mol percent” value was 0.4754 mol percent and 0.4091 mol percent and 0.4604 mol percent and 0.341 mol percent. CCCCCCCCCCCCCCCCCC/C=C\OC[C@@H](O)COP(=O)(O)OCCN [Lyso PE20:0p] was tested, and the “Amount of lipid species, mol percent” value was 0.184 mol percent and 0.3068 mol percent and 0.1973 mol percent and 0.2871 mol percent.

Each compound was assayed on mouse Mfsd2a in the same assay as above. Details: mock HEK293 cells; 100 uM Docosahexaenoic acid/BSA complex overnight; MS; replicate columns.
Protocol: as §1, §2
For CCCCCCCCCCCCCCCC(=O)OC[C@@H](O)COP(=O)(O)O[C@@H]1[C@H](O)[C@H](O)[C@@H](O)[C@H](O)[C@H]1O [LP116:0], the “Amount of each lipid species normalized to internal standard, mol percent in total phospholipid analysed” value was 0.003621 mol percent and 0.004425 mol percent and 0.003813 mol percent. With CCCCCCCCCCCCCC/C=C\OC[C@@H](O)COP(=O)(O)OCCN [Lyso PE16:0p] the “Amount of each lipid species normalized to internal standard, mol percent in total phospholipid analysed” value was 2.843 mol percent and 2.772 mol percent and 2.42 mol percent. CCCCCCCCCCCCCCCC/C=C\OC[C@@H](O)COP(=O)(O)OCCN [Lyso PE18:0p] was tested, and the “Amount of each lipid species normalized to internal standard, mol percent in total phospholipid analysed” value was 0.3791 mol percent and 0.5478 mol percent and 0.5875 mol percent. For CCCCCCCCCCCCCCCCCC/C=C\OC[C@@H](O)COP(=O)(O)OCCN [Lyso PE20:0p], the “Amount of each lipid species normalized to internal standard, mol percent in total phospholipid analysed” value was 0.1737 mol percent and 0.2656 mol percent and 0.1958 mol percent.

Same assay, conditions: mock HEK293 cells; 100 uM Eicosapentaenoic acid/BSA complex overnight; MS; replicate columns
In the case of CCCCCCCCCCCCCC/C=C\OC[C@@H](O)COP(=O)(O)OCCN [Lyso PE16:0p], the “Amount of each lipid species normalized to internal standard, mol percent in total phospholipid analysed” value was 3.984 mol percent and 3.09 mol percent and 2.343 mol percent. CCCCCCCCCCCCCCCC/C=C\OC[C@@H](O)COP(=O)(O)OCCN [Lyso PE18:0p] was tested, and the “Amount of each lipid species normalized to internal standard, mol percent in total phospholipid analysed” value was 0.7711 mol percent and 0.3952 mol percent and 0.4625 mol percent. In the case of CCCCCCCCCCCCCCCCCC/C=C\OC[C@@H](O)COP(=O)(O)OCCN [Lyso PE20:0p], the “Amount of each lipid species normalized to internal standard, mol percent in total phospholipid analysed” value was 0.4498 mol percent and 0.1976 mol percent and 0.1696 mol percent.

Same assay, conditions: mock HEK293 cells; 100 uM Oleic fatty acid/BSA complex overnight; MS; replicate columns
CCCCCCCCCCCCCC/C=C\OC[C@@H](O)COP(=O)(O)OCCN [Lyso PE16:0p] was tested, and the “Amount of lipid species, mol percent” value was 3.062 mol percent and 2.456 mol percent and 2.052 mol percent. CCCCCCCCCCCCCCCC/C=C\OC[C@@H](O)COP(=O)(O)OCCN [Lyso PE18:0p] was tested, and the “Amount of lipid species, mol percent” value was 0.336 mol percent and 0.5628 mol percent and 0.5097 mol percent. For CCCCCCCCCCCCCCCCCC/C=C\OC[C@@H](O)COP(=O)(O)OCCN [Lyso PE20:0p], the “Amount of lipid species, mol percent” value was 0.1867 mol percent and 0.2217 mol percent and 0.228 mol percent.
